What was measured:
Experiment in all cases: relative viability (nuclei count vs DMSO), 5 days (fraction); higher = more cells survive
Everolimus + Olaparib = compound: CO[C@H]1C[C@@H]2CC[C@@H](C)[C@@](O)(O2)C(=O)C(=O)N2CCCC[C@H]2C(=O)O[C@H]([C@H](C)C[C@@H]2CC[C@@H](OCCO)[C@H](OC)C2)CC(=O)[C@H](C)/C=C(\C)[C@@H](O)[C@@H](OC)C(=O)[C@H](C)C[C@H](C)/C=C/C=C/C=C/1C [Everolimus] + O=C(c1cc(Cc2n[nH]c(=O)c3ccccc23)ccc1F)N1CCN(C(=O)C2CC2)CC1 [Olaparib] (partner 8 µM)
Outline: (§1)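 Dosing by pin tool came one day after lung cancer cell lines were seeded in 1536-well plates, using either one drug or a fixed anchor-drug dose plus five library-drug doses (not always all listed) in √10 steps. After 5 days, nuclei were counted on 4× images. Relative viability is treated-well nuclei count divided by vehicle-well nuclei count, and values are medians of duplicate plates.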

Everolimus + Palbociclib = compound: CO[C@H]1C[C@@H]2CC[C@@H](C)[C@@](O)(O2)C(=O)C(=O)N2CCCC[C@H]2C(=O)O[C@H]([C@H](C)C[C@@H]2CC[C@@H](OCCO)[C@H](OC)C2)CC(=O)[C@H](C)/C=C(\C)[C@@H](O)[C@@H](OC)C(=O)[C@H](C)C[C@H](C)/C=C/C=C/C=C/1C [Everolimus] + CC(=O)c1c(C)c2cnc(Nc3ccc(N4CCNCC4)cn3)nc2n(C2CCCC2)c1=O [Palbociclib] (partner 0.5 µM)
Outline: as §1

Everolimus + Pemetrexed = compound: CO[C@H]1C[C@@H]2CC[C@@H](C)[C@@](O)(O2)C(=O)C(=O)N2CCCC[C@H]2C(=O)O[C@H]([C@H](C)C[C@@H]2CC[C@@H](OCCO)[C@H](OC)C2)CC(=O)[C@H](C)/C=C(\C)[C@@H](O)[C@@H](OC)C(=O)[C@H](C)C[C@H](C)/C=C/C=C/C=C/1C [Everolimus] + Nc1nc2[nH]cc(CCc3ccc(C(=O)N[C@@H](CCC(=O)O)C(=O)O)cc3)c2c(=O)[nH]1 [Pemetrexed] (partner 0.2 µM)
Outline: as §1

Everolimus + Alpelisib = compound: CO[C@H]1C[C@@H]2CC[C@@H](C)[C@@](O)(O2)C(=O)C(=O)N2CCCC[C@H]2C(=O)O[C@H]([C@H](C)C[C@@H]2CC[C@@H](OCCO)[C@H](OC)C2)CC(=O)[C@H](C)/C=C(\C)[C@@H](O)[C@@H](OC)C(=O)[C@H](C)C[C@H](C)/C=C/C=C/C=C/1C [Everolimus] + Cc1nc(NC(=O)N2CCC[C@H]2C(N)=O)sc1-c1ccnc(C(C)(C)C(F)(F)F)c1 [Alpelisib] (partner 2 µM)
Outline: as §1

Row | Cell Line | relative viability (Everolimus + Olaparib; first compound 0.01 µM) | relative viability (Everolimus + Olaparib; first compound 0.03162 µM) | relative viability (Everolimus + Olaparib; first compound 0.1 µM) | relative viability (Everolimus + Olaparib; first compound 0.3162 µM) | relative viability (Everolimus + Olaparib; first compound 1 µM) | relative viability (Everolimus + Palbociclib; first compound 0.01 µM) | relative viability (Everolimus + Palbociclib; first compound 0.03162 µM) | relative viability (Everolimus + Palbociclib; first compound 0.1 µM) | relative viability (Everolimus + Palbociclib; first compound 0.3162 µM) | relative viability (Everolimus + Palbociclib; first compound 1 µM) | relative viability (Everolimus + Pemetrexed; first compound 0.01 µM) | relative viability (Everolimus + Pemetrexed; first compound 0.03162 µM) | relative viability (Everolimus + Pemetrexed; first compound 0.1 µM) | relative viability (Everolimus + Pemetrexed; first compound 0.3162 µM) | relative viability (Everolimus + Pemetrexed; first compound 1 µM) | relative viability (Everolimus + Alpelisib; first compound 0.01 µM) | relative viability (Everolimus + Alpelisib; first compound 0.03162 µM) | relative viability (Everolimus + Alpelisib; first compound 0.1 µM) | relative viability (Everolimus + Alpelisib; first compound 0.3162 µM) | relative viability (Everolimus + Alpelisib; first compound 1 µM)
1 | ChaGo-K-1 | 0.424 | 0.492 | 0.466 | 0.401 | 0.494 | 0.798 | 0.806 | 0.802 | 0.768 | 0.914 | 0.247 | 0.265 | 0.26 | 0.244 | 0.249 |  |  |  |  | 
2 | EBC-1 | 0.505 | 0.324 | 0.31 | 0.349 | 0.334 |  |  |  |  |  |  |  |  |  |  | 0.278 | 0.348 | 0.284 | 0.33 | 0.279
3 | EKVX |  | 0.493 | 0.494 | 0.561 | 0.558 |  | 0.217 | 0.188 | 0.2 | 0.237 |  | 0.378 | 0.371 | 0.345 | 0.389 | 0.479 | 0.48 | 0.436 | 0.61 | 0.449
4 | EMC-BAC-2 | 0.455 | 0.43 | 0.385 | 0.383 | 0.347 | 0.414 | 0.376 | 0.346 | 0.357 | 0.324 | 0.469 | 0.491 | 0.445 | 0.45 | 0.491 | 0.499 | 0.46 | 0.388 | 0.461 | 0.481
5 | EPLC-272H | 0.552 | 0.484 | 0.428 | 0.429 | 0.483 | 0.307 | 0.323 | 0.284 | 0.286 | 0.259 | 0.343 | 0.317 | 0.397 | 0.313 | 0.315 | 0.797 | 0.577 | 0.592 | 0.586 | 0.638
6 | H3255 | 0.489 | 0.513 | 0.444 | 0.454 | 0.355 | 0.314 | 0.294 | 0.319 | 0.322 | 0.307 | 0.459 | 0.458 | 0.478 | 0.449 | 0.455 | 0.526 | 0.412 | 0.48 | 0.441 | 0.334
7 | HARA | 0.78 | 0.762 | 0.86 | 0.84 | 0.471 | 0.242 | 0.189 | 0.218 | 0.241 | 0.169 | 0.294 | 0.245 | 0.26 | 0.238 | 0.202 | 0.564 | 0.457 | 0.499 | 0.507 | 0.412
8 | HCC-15 | 0.723 | 0.796 | 0.642 | 0.656 | 0.647 | 0.73 | 0.79 | 0.627 | 0.697 | 0.76 | 0.222 | 0.273 | 0.23 | 0.231 | 0.222 | 0.763 | 0.678 | 0.685 | 0.608 | 0.605
